Assay results: US11759492B2, “Extract from a plant of the genus Boswellia and related products and uses” (Alpinia Laudanum Institute of Phytopharmaceutical Sciences …, priority 2014, dated 2023)

System: HepG2 cells
Assay: Determination of reactive oxygen species (ROS) in HepG2 indicator cells (ROS-Glo system)
Type: cell-based
Conditions: two hours or four hours of incubation, FIG. 4 and 5
Experimental: The potential of Boswellia extract BSR037: LN00125 (Example 12) and Boswellia extract BSR037: LN00126 (Example 15) of inducing reactive oxygen species (ROS) was tested. The effects were compared with ROS generation upon exposure to positive control Menadione as well as two solvent ethanol. To this end, HepG2 cells were incubated in presence of different concentrations of the respective Boswellia extract for two hours. ROS levels were determined by using the ROS-Glo system (Promega). HepG2 cells were seeded in […] flat-bottom black microtiter plates at a density of 10000 cells per well, 100 μl per well, and allowed to attach to the plate for 24 hours. Test item dilutions were prepared in separate plates. The maximum concentration was a 1:100 dilution in media (final solvent concentration: 1% ethanol) followed by a 1:3 serial dilution in media containing 1% ethanol. […] Cells exposed to media containing 1% ethanol served as untreated control. After overnight adherence, media was completely removed from cells by vacuum aspiration and 80 μl of compound dilution, positive and negative controls were added to the cells. Test items were tested in two replicates per concentration (A and B). In independent experiments, ROS levels were measured after two hours of incubation (see FIG. 4A-D) or after four hours of incubation (see FIG. 5A-D), respectively).

CC1=CC(=O)c2ccccc2C1=O [Menadione]
ROS induction: ROS induction was detected
